Test results as given in ChEMBL document CHEMBL4507268 (2021).

Columns and labels:
[1] = target: Tyrosine-protein kinase ABL1 (Homo sapiens) (UniProt P00519); details: Compound concentration 1000.0 nM
[2] = target: Mitotic checkpoint serine/threonine-protein kinase BUB1 (Homo sapiens) (UniProt O43683); details: Compound concentration 1000.0 nM
[3] = target: Ephrin type-A receptor 2 (Homo sapiens) (UniProt P29317); details: Compound concentration 1000.0 nM
[4] = target: T1, Ephrin type-A receptor 8 (Homo sapiens) (UniProt P29322); details: Compound concentration 1000.0 nM
T1 sequence (whole entry): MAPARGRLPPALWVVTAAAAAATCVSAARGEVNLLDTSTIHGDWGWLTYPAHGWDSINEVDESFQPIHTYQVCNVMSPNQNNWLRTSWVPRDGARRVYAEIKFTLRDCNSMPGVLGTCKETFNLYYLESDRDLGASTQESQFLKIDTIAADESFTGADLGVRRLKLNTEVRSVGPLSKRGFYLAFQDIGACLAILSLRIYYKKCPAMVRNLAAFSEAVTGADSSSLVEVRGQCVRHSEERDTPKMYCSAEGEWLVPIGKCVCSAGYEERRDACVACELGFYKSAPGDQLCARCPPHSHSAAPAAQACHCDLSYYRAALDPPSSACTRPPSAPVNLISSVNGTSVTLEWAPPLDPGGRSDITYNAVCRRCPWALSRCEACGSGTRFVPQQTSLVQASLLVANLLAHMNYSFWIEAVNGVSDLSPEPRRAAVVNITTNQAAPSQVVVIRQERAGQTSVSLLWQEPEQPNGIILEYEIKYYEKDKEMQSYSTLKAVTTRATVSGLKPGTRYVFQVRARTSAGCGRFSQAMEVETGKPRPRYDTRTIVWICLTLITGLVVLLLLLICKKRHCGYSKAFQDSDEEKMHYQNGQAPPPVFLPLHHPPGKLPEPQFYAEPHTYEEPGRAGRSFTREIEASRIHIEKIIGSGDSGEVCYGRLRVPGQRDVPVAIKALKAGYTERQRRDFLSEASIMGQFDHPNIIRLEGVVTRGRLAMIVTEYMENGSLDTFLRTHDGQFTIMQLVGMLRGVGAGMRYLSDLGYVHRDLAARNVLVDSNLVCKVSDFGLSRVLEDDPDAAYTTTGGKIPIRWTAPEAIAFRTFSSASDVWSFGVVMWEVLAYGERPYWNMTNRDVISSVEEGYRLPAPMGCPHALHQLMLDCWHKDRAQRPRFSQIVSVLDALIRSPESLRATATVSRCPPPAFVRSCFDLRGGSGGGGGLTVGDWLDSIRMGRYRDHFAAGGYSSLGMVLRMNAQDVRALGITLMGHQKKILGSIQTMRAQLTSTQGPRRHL

[5] = target: Mitogen-activated protein kinase 4 (Homo sapiens) (UniProt P31152); details: Compound concentration 1000.0 nM
[6] = target: Focal adhesion kinase 1 (Homo sapiens) (UniProt Q05397); details: Compound concentration 1000.0 nM
[7] = target: Tyrosine-protein kinase Fer (Homo sapiens) (UniProt P16591); details: Compound concentration 1000.0 nM
[8] = target: T2, G protein-coupled receptor kinase 3 (Homo sapiens) (UniProt P35626); details: Compound concentration 1000.0 nM
T2 sequence (whole entry): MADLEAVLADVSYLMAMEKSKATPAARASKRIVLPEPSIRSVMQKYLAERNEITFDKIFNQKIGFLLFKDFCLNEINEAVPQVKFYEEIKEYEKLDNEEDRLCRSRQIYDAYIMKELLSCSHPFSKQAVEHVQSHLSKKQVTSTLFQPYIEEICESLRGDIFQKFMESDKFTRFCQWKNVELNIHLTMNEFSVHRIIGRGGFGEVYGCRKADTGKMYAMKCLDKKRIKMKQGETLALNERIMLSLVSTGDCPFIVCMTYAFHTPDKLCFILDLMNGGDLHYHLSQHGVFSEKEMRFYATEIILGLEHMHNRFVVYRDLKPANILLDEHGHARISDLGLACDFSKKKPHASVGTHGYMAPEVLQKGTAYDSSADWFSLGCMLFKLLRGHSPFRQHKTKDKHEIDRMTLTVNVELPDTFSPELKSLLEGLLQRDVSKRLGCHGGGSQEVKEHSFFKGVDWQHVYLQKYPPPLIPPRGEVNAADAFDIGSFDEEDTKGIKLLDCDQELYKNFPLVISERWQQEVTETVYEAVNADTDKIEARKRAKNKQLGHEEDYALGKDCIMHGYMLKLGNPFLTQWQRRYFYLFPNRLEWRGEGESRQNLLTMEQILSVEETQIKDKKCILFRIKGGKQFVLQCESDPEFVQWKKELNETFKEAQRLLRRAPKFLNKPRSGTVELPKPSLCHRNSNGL

[9] = system: Mast/stem cell growth factor receptor Kit (Homo sapiens), P10721 [D816H]; details: Compound concentration 1000.0 nM
[10] = target: Phosphatidylinositol 4,5-bisphosphate 3-kinase catalytic subunit delta isoform (Homo sapiens) (UniProt O00329); details: Compound concentration 1000.0 nM
[11] = target: Serine/threonine-protein kinase PLK2 (Homo sapiens) (UniProt Q9NYY3); details: Compound concentration 1000.0 nM
[12] = target: SRSF protein kinase 2 (Homo sapiens) (UniProt P78362); details: Compound concentration 1000.0 nM
[13] = target: T3, Testis-specific serine/threonine-protein kinase 1 (Homo sapiens) (UniProt Q9BXA7); details: Compound concentration 1000.0 nM
T3 sequence (whole entry): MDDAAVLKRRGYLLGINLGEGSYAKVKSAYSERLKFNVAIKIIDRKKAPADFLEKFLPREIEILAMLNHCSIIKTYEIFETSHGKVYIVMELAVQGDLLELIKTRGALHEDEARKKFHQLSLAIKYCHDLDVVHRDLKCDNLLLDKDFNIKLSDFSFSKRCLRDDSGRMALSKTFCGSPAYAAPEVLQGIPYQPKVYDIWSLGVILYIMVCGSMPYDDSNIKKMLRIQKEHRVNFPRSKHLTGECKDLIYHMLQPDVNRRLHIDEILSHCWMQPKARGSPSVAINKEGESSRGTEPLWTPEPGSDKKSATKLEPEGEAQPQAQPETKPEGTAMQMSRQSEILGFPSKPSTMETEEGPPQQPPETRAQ

[14] = target: Serine/threonine-protein kinase 25 (Homo sapiens) (UniProt O00506); details: Compound concentration 1000.0 nM
[15] = target: 5-hydroxytryptamine receptor 5A (Homo sapiens) (UniProt P47898); details: Compound concentration 10.0 uM
[16] = target: Kappa-type opioid receptor (Homo sapiens) (UniProt P41145); details: Compound concentration 10.0 uM
[17] = target: Histamine H3 receptor (Homo sapiens) (UniProt Q9Y5N1); details: Compound concentration 10.0 uM
Histamine H3 receptor (Homo sapiens), sequence (Q9Y5N1 whole entry): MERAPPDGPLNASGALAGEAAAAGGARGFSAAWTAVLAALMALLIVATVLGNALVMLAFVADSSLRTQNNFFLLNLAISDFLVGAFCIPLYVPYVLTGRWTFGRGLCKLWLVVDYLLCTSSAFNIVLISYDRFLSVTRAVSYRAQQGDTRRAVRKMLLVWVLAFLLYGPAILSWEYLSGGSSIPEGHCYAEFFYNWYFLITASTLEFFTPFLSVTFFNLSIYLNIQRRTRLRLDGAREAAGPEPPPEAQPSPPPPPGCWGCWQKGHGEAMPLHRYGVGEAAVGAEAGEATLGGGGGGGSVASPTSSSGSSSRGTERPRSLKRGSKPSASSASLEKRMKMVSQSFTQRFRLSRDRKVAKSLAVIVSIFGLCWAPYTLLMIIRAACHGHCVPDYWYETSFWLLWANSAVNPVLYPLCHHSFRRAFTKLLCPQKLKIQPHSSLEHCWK

Serine/threonine-protein kinase 25 (Homo sapiens), sequence (O00506 whole entry, looked up): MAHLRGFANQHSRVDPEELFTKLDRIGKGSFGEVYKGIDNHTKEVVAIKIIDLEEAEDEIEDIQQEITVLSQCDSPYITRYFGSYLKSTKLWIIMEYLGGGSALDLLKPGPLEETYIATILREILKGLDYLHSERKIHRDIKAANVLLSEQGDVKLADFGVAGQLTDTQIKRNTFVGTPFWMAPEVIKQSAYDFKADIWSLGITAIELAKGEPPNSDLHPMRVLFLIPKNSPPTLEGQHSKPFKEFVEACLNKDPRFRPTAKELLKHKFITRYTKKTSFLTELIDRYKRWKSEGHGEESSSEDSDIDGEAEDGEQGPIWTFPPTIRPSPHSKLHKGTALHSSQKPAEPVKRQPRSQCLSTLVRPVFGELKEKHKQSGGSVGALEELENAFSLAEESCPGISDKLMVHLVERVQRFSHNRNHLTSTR
Focal adhesion kinase 1 (Homo sapiens), sequence (Q05397 2-1052 limits assumed): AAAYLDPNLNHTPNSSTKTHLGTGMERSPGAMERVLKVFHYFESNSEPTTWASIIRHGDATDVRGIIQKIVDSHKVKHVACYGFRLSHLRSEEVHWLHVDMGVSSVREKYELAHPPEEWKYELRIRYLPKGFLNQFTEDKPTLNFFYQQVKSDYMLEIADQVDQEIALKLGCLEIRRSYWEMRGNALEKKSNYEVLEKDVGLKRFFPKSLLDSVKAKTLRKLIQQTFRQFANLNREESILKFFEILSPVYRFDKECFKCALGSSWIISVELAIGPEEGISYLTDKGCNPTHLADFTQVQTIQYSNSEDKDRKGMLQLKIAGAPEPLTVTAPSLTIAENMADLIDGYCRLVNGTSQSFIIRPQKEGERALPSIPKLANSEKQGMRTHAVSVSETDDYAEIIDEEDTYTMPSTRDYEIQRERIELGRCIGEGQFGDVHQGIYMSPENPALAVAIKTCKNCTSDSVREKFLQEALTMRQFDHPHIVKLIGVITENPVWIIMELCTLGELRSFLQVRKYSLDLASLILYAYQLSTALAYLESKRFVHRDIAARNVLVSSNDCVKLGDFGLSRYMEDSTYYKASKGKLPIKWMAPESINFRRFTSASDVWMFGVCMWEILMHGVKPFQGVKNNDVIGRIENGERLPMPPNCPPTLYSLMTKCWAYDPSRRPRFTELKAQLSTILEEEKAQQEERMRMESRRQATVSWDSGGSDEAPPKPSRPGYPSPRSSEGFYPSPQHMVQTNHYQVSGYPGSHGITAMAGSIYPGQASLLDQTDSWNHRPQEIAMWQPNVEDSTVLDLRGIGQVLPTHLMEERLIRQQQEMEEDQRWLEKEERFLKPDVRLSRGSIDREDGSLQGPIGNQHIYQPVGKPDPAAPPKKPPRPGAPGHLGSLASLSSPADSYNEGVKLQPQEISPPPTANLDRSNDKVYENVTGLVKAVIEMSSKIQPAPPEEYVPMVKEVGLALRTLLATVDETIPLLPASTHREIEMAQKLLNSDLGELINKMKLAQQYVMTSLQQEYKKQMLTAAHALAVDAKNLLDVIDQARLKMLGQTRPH
5-hydroxytryptamine receptor 5A (Homo sapiens), sequence (P47898 whole entry): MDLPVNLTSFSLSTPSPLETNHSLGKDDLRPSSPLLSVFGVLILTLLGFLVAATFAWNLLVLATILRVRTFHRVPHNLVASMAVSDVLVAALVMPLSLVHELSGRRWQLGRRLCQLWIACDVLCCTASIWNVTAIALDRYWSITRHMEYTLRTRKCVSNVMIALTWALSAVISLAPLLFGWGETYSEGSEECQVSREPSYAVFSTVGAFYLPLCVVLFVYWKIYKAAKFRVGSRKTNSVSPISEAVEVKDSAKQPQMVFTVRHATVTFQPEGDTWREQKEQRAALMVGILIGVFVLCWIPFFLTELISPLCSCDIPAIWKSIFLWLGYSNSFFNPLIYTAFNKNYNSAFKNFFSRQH
Kappa-type opioid receptor (Homo sapiens), sequence (P41145 whole entry): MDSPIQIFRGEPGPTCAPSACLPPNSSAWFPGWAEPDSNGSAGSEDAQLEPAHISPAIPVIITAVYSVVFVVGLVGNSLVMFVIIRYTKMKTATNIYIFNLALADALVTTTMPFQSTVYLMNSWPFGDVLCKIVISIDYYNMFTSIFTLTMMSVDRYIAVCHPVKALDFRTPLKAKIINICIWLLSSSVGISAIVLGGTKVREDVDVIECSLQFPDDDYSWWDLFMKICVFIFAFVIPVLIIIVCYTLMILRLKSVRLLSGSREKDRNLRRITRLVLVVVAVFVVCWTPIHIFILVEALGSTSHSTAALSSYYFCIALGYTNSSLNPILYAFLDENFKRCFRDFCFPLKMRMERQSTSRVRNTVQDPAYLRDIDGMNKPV
SRSF protein kinase 2 (Homo sapiens), sequence (P78362 whole entry, looked up): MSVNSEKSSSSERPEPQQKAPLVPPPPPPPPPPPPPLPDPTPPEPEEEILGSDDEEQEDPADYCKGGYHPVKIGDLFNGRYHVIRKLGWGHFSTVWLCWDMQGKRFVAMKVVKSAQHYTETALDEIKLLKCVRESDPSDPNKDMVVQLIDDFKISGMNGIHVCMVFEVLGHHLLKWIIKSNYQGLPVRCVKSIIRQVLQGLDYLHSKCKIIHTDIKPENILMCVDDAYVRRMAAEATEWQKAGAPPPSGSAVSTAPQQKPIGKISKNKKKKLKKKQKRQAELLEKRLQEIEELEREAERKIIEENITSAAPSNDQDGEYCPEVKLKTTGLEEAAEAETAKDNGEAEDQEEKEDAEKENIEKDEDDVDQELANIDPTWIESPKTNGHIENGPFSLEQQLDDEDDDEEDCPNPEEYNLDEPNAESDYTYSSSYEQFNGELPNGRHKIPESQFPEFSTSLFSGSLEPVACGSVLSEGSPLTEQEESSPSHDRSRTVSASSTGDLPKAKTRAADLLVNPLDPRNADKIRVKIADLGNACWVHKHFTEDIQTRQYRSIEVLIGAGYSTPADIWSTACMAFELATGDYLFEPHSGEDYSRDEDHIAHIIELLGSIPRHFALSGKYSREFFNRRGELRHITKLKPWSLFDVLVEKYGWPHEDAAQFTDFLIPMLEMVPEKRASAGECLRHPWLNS
Tyrosine-protein kinase Fer (Homo sapiens), sequence (P16591 whole entry, looked up): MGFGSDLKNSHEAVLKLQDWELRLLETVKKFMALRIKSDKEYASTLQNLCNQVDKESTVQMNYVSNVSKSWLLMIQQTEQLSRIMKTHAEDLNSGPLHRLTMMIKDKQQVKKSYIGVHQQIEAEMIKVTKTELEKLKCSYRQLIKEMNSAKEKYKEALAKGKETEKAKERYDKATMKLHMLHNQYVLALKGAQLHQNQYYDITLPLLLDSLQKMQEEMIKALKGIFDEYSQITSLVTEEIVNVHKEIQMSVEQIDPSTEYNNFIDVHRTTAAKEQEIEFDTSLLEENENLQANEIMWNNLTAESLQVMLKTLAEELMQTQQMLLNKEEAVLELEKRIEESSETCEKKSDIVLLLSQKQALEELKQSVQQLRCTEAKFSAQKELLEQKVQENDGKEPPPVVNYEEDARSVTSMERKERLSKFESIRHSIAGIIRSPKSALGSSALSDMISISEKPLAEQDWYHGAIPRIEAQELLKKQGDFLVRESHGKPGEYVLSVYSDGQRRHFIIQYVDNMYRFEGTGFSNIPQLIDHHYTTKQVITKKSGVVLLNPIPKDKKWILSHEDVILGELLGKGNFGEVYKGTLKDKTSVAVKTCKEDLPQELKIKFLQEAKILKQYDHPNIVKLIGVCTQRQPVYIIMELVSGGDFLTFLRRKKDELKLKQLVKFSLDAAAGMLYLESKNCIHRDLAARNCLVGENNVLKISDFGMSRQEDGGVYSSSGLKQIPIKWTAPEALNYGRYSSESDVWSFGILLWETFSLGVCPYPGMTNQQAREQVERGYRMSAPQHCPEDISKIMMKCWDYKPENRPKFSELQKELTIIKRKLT
Serine/threonine-protein kinase PLK2 (Homo sapiens), sequence (Q9NYY3 whole entry, looked up): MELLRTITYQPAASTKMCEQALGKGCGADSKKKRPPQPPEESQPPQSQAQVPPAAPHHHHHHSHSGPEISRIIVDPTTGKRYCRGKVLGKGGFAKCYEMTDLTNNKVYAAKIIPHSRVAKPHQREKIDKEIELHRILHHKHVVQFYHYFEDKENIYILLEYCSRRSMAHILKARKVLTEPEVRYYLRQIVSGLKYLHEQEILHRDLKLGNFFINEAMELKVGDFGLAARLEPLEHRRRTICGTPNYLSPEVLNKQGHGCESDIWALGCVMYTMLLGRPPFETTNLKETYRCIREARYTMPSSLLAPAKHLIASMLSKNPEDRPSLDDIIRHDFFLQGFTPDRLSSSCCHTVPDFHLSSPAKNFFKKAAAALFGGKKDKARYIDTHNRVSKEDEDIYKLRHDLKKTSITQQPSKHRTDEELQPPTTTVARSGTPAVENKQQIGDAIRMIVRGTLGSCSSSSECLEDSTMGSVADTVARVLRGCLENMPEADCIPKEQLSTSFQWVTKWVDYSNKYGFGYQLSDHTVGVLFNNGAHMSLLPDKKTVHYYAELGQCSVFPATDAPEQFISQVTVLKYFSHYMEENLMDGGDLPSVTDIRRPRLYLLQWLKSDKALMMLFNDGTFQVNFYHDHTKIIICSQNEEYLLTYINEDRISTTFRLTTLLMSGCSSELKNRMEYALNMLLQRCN

Cc1nc(C2CCN(C(=O)c3ccc(OC(F)(F)F)cc3N)CC2)c2ncc(N3CCN(C)CC3)cc2n1 [BAY-693]
inactive: residual activity [1] 92% | residual activity [2] 96% | residual activity [3] 100% | residual activity [4] 98% | residual activity [5] 91% | residual activity [6] 91% | residual activity [7] 99% | residual activity [8] 93% | residual activity [9] 100% | residual activity [10] 78% | residual activity [11] 74% | residual activity [12] 74% | residual activity [13] 100% | residual activity [14] 100% | inhibition [15] -3.74% | inhibition [16] 21.2% | inhibition [17] 38.4%

CN1CCN(c2cnc3c(C4CCN(C(=O)c5ccc(OC(F)(F)F)cc5N)CC4)ncnc3c2)CC1 [BAY-885]
inactive: residual activity [1] 86% | residual activity [2] 93% | residual activity [3] 100% | residual activity [4] 100% | residual activity [5] 100% | residual activity [6] 100% | residual activity [7] 100% | residual activity [8] 89% | residual activity [9] 100% | residual activity [10] 86% | residual activity [11] 93% | residual activity [12] 78% | residual activity [13] 100% | residual activity [14] 92% | inhibition [15] -1.47% | inhibition [16] 9.37% | inhibition [17] 36.9%
